{"source": "patent US20150297562A1", "about": "“ANALGESIC” (NIPPON ZOKI PHARMACEUTICAL CO., LTD., priority 2012, published 2015)", "tested_on": "MIA-induced OA rats", "test": "Analgesic action to MIA-induced osteoarthritis model rats (von Frey test, 50% reaction threshold to mechanical stimulus)", "type": "in vivo, rat (male Wistar)", "conditions": "Rattus norvegicus, ip, single intraperitoneal dose of 200 μg/kg, von Frey test after 1 hour from administration, normal threshold value 15, read-out: Recovery rate of 50% reaction threshold value (%)", "procedure": "Pharmacological Test I: Analgesic Action to Osteoarthritis Model Rats\nThere were conducted the following experiments for testing the analgesic action of the analgesic of the present invention using the osteoarthritis (OA) rats induced by sodium monoiodoacetate (MIA) which were model animals for OA.\n(1) Preparation of MIA-Induced OA Rats\nA 50% reaction threshold value to the mechanical stimulus of male Wistar rats of six weeks age was measured (the measuring method will be mentioned later) and a normal control group was selected. MIA prepared by saline was administered in a single dose of 300 μg/50 μL into right knee joint of the rats except the normal control group while 50 μL of saline was administered into left knee joint whereupon the MIA-induced OA rats were prepared. To the normal control group, 50 μL of saline was administered into the joints of both knees.\nWith regard to the male Wistar rats of six weeks age used as experimental animals except the normal control group, their 50% reaction threshold values to the mechanical stimulus (the measuring method will be mentioned later) and body weights were measured after […] from the administration of MIA mentioned in (1) and then 3 groups each comprising six rats [a normal control group, an onset control group and a test drug-administered group] were organized.\n(3) Administration of Test Drug\nA test drug solution (100 μg/mL) using the compound according to the analgesic of the present invention as a test drug was prepared using a phosphate buffered saline (PBS) containing 0.1 vol % of dimethyl sulfoxide (DMSO).\nImmediately after the grouping (after 14 days from the administration of MIA), a test drug solution was intraperitoneally administered in a single dose of 200 μg/kg to a test drug-administered group. Meanwhile, to the normal control group and the onset control group, PBS containing 0.1 vol % of DMSO was intraperitoneally administered in a single dose.\n(4) Result of Measurement of the 50% Reaction Threshold Values to the Mechanical Stimulus (Von Frey Test)\nThe three groups of rats of the above (2) were placed in a transparent acrylic cage with a wire-meshed floor and habituated for about three minutes and the 50% reaction threshold values to the mechanical stimulus were measured after 1 hour from the administration of a test drug. The measurement was conducted using von Frey filaments (manufactured by North Coast Medical Inc.) in accordance with the methods of Chaplan, et al. (Journal of Neuroscience Methods, vol. 53, no. 1, pages 55 to 63, 1994) and Dixon, et al. (Annual Review of Pharmacology and Toxicology, vol. 20, pages 441 to 462, 1980). […] The case where the rat escaped at the instance of removing the filament was also called positive. When the positive reaction was noted, stimulus was conducted similarly using a filament of one rank weaker while, when no reaction was noted, stimulus was conducted similarly using a filament of one rank stronger and the point when the reaction changed from negative to positive or from positive to negative was called the first two reactions. After that, stimulus was conducted for continuous four times by the same up-down method. A 50% reaction threshold value to the mechanical stimulus was measured using the reaction to the six stimuli in total and then (mean value)±(standard error) for each group was calculated. Incidentally, when stimulus reached by that of 15.0 g without positive reaction or, when positive reaction continued to 0.4 g, then 15.0 g or 0.25 g was adopted as each threshold value, respectively.\nWith regard to the 50% reaction threshold value after 1 hour from administration of a test drug, a recovery rate (%) of the 50% reaction threshold value was calculated by the following expression in which 15 was adopted as the normal threshold value. […]", "data": [{"smiles": "CCCCCCC/C=C/C(=O)OCCN(C)C", "note": "[Compound 1, (E)-2-(dimethylamino)ethyl dec-2-enoate]", "values": [{"measurement": "inhibition in vivo at 0.2 mg/kg", "value": 25.5, "unit": "%"}]}, {"smiles": "CCCCCCC/C=C/C(=O)OCCSC(C)C", "note": "[Compound 8, (E)-2-(isopropylthio)ethyl dec-2-enoate]", "values": [{"measurement": "inhibition in vivo at 0.2 mg/kg", "value": 28.9, "unit": "%"}]}, {"smiles": "CCCCCCC/C=C/C(=O)OCCOC", "note": "[Compound 9, (E)-2-methoxyethyl dec-2-enoate]", "values": [{"measurement": "inhibition in vivo at 0.2 mg/kg", "value": 13, "unit": "%"}]}, {"smiles": "CCCCCCC/C=C/C(=O)NCC(C)C", "note": "[Compound 18, (E)-N-isobutyl dec-2-enamide]", "values": [{"measurement": "inhibition in vivo at 0.2 mg/kg", "value": 49, "unit": "%"}]}, {"smiles": "CCCCCCC/C=C/C(=O)NCCCCCC", "note": "[Compound 22, (E)-N-hexyl dec-2-enamide]", "values": [{"measurement": "inhibition in vivo at 0.2 mg/kg", "value": 44.3, "unit": "%"}]}, {"smiles": "CCCCCCC/C=C/C(=O)NC1CCCCC1", "note": "[Compound 27, (E)-N-cyclohexyl dec-2-enamide]", "values": [{"measurement": "inhibition in vivo at 0.2 mg/kg", "value": 5.8, "unit": "%"}]}, {"smiles": "CCCCCCC/C=C/C(=O)NCCN(CC)CC", "note": "[Compound 37 (Citrate), (E)-N-2-(diethylamino)ethyl dec-2-enamide]", "values": [{"measurement": "inhibition in vivo at 0.2 mg/kg", "value": 45.1, "unit": "%"}]}, {"smiles": "CCCCCCC/C=C/C(=O)N(CC)CCN(CC)CC", "note": "[Compound 44 (Citrate), (E)-N-(2-(diethylamino)ethyl)-N-ethyl dec-2-enamide]", "values": [{"measurement": "inhibition in vivo at 0.2 mg/kg", "value": 21.7, "unit": "%"}]}, {"smiles": "CCCCCCC/C=C/C(=O)N(CCN(C)C)CCN(C)C", "note": "[Compound 45, (E)-N,N-bis(2-(dimethylamino)ethyl) dec-2-enamide]", "values": [{"measurement": "inhibition in vivo at 0.2 mg/kg", "value": 10.2, "unit": "%"}]}, {"smiles": "CCCCCCC/C=C/C(=O)SCCCCCC", "note": "[Compound 50, (E)-S-hexyl dec-2-enethioate]", "values": [{"measurement": "inhibition in vivo at 0.2 mg/kg", "value": 15.6, "unit": "%"}]}, {"smiles": "CCCCCCC/C=C/C(=O)SCCN(CC)CC", "note": "[Compound 56, (E)-S-2-(diethylamino)ethyl dec-2-enethioate]", "values": [{"measurement": "inhibition in vivo at 0.2 mg/kg", "value": 21.8, "unit": "%"}]}]}
